Assays:
[1] = molecular target: T1, human TrkB kinase (Homo sapiens, UniProt Q16620); assay: TrkB kinase assay (HTRF); type: biochemical; settings: intracellular domain of HIS-tagged human TrkB
T1 construct: The intracellular domain of a HIS-tagged human TrkB kinase; HIS; made in house; host or cells: SF9 insect cells
Method: TrkB kinase activity is being measured against its ability to phosphorylate synthetic tyrosine residues within a generic polypeptide substrate using homogenous time-resolved fluorescence (HTRF) technology. The intracellular domain of a HIS-tagged human TrkB kinase was expressed in SF9 cells and purified using standard nickel column chromatography. After the kinase is incubated with a biotinylated substrate and ATP for 50 minutes at room temperature, the kinase reaction is stopped by the addition of 60 mM EDTA. The reaction is performed in 384 well microtitre plates and reaction products are detected with the addition of strepavidin-linked and phosphotyrosine-specific antibodies using the Tecan Ultra Evolution Microplate Fluometer after an additional 3-hour incubation at room temperature.
(§1) When tested in the above in-vitro assay the Trk inhibitory activity of the following examples was measured at the following IC50s.

[2] = molecular target: T2, human TrkA kinase (Homo sapiens, UniProt P04629); assay: TrkA kinase assay (AlphaScreen); type: biochemical; settings: intracellular domain of His-tagged human TrkA, 20 μM ATP (=Km)
T2 construct: The intracellular domain of a His-tagged human TrkA kinase; His; made in house; host or cells: High Five insect cells
Method: TrkA kinase activity is measured in 384-well format using AlphaScreen technology. […] The intracellular domain of a His-tagged human TrkA kinase was expressed in High Five cells. The kinase was incubated with ATP and the biotinylated substrate for 15 minutes at room temperature. The reactions were then stopped by the addition of EDTA, anti-phosphotyrosine antibody (PT-100) coated acceptor beads and streptavidin coated donor beads. After 2 h of incubation in the dark at room temperature, the product was detected using a Fusion Alpha instrument. […] Termination/Detection conditions: 25 mM HEPES pH 7.4, 100 mM NaCl, 48 mM EDTA, 0.1% BSA and 20 μg/ml of donor and acceptor beads.
as §1

[3] = tested on: carrageenan monoarthritis; assay: Rat carrageenan test (carrageenan monoarthritis, pain score); type: in vivo; settings: oral, 80 μmol/kg
Method: The compounds used according to the invention when given by systemic administration to mice or rats, specifically reduce pain in the rat carrageenan test as described by Tonussi and Ferreira (Pain 1992, 48, 421-427).
Description of the Rat Carrageenan Test
Experimental procedures. Under isoflurane anesthesia, 40 μL of carrageenan (7.5 mg/mL) was injected into the left tibio-tarsal (ankle) joint from the dorsal side. The injection causes a localized inflammation increasing to a maximum between 4 h to 6 h after induction, after which it gradually decreases, and the animals display decreased weight bearing on and guarding of the limb.
(2R)-2-{[5-Chloro-4-(1H-pyrazol-5-ylamino)pyrimidin-2-yl]amino}-2-(4-fluorophenyl)ethanol was administered 30 min before induction of monoarthritis. The rats were placed in an acrylic chamber and videotaped for 5 min from underneath, 2 h, 2 h30, 3 h, 3 h30, 5 h after drug administration. Subsequently, the weight the rats were willing to put on the injected paw was scored as described in the table below, and defined as the “Pain Score”: […]
Data analysis. Two Way Repeated Measures ANOVA (one factor repetition) followed by Newmans-Keuls method for all pairwise multiple comparison procedures (SigmaStat® 2.03) was used to evaluate group effects. The level of significance was set at p<0.05.

[4] = tested on: mechanical hypersensitivity; settings: injected into rats with pancreatite; cited from earlier work

T2 sequence (P04629 440-796 limits assumed): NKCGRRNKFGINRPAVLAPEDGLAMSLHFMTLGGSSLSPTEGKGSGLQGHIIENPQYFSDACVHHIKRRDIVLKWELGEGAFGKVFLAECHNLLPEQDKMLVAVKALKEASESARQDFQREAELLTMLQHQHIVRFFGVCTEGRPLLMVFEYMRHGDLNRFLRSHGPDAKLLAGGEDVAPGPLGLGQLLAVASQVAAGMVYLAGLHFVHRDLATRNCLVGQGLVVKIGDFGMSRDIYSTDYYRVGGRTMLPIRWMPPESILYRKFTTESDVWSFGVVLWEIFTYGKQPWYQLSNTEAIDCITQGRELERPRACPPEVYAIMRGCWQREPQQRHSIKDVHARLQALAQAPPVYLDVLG
T1 sequence (Q16620 455-822 limits assumed): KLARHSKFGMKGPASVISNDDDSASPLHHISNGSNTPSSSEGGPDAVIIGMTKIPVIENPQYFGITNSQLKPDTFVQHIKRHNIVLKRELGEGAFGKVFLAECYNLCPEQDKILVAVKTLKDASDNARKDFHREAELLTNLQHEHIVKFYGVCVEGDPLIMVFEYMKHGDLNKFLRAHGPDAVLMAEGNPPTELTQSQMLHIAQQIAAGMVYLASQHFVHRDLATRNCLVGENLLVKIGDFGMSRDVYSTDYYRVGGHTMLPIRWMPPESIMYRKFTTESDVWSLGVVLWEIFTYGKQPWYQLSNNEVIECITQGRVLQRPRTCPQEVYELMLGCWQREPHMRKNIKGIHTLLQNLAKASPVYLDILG

| SMILES | IC50 [1] [µM] | IC50 [2] [µM] | signs of side-effects [3] | pain score induced by carrageenan monoarthritis ([3]; given 30 min before induction, within 5 hours after administration, p<0.05) | mechanical hypersensitivity [4] |
| --- | --- | --- | --- | --- | --- |
| OC[C@H](Nc1ncc(Cl)c(Nc2ccn[nH]2)n1)c1ccc(F)cc1 [(2R)-2-{[5-Chloro-4-(1H-pyrazol-5-ylamino)pyrimidin-2-yl]amino}-2-(4-fluorophenyl)ethanol] |  |  | did not show signs of side-effects | significantly reduced |  |
| COC(=O)[C@@]1(O)C[C@H]2O[C@]1(C)n1c3ccccc3c3c4c(c5c6ccccc6n2c5c31)C(=O)NC4 [Compound K252a, K252a] |  |  |  |  | could suppress mechanical hypersensitivity |
| C[C@H](Nc1ncc(Cl)c(Nc2cc(C3CC3)n[nH]2)n1)c1ccc(F)cc1 [5-Chloro-N^4-(5-cyclopropyl-1H-pyrazol-3-yl)-N^2-[(1S)-1-(4-fluorophenyl)ethyl]pyrimidine-2,4-diamine] | 0.14 | 0.035 |  |  |  |

Second part, led by results:

| IC50 [1] [µM] | IC50 [2] [µM] | SMILES | signs of side-effects [3] | pain score induced by carrageenan monoarthritis ([3]; given 30 min before induction, within 5 hours after administration, p<0.05) | mechanical hypersensitivity [4] |
| --- | --- | --- | --- | --- | --- |
| 0.26 | 0.075 | OC[C@H](Nc1ncc(F)c(Nc2cc(C3CC3)[nH]n2)n1)c1ccc(F)cc1 [(2R)-2-({4-[(5-Cyclopropyl-1H-pyrazol-3-yl)amino]-5-fluoropyrimidin-2-yl}amino)-2-(4-fluorophenyl)ethanol] |  |  |  |
| 0.22 | 0.039 | OCC[C@H](Nc1ncc(Cl)c(Nc2cc(C3CC3)[nH]n2)n1)c1ccc(F)cc1 [(3S)-3-({4-[(5-Cyclopropyl-1H-pyrazol-3-yl)amino]-5-chloropyrimidin-2-yl}amino)-3-(4-fluorophenyl)propan-1-ol] |  |  |  |

— patent publication US20090005396A1, “Use of Pyrazolyl-Pyrimidine Derivatives in the Treatment of Pain” (ASTRAZENECA AB, priority 2005, published 2009)
